Assays:
[1] = target: T1, PTP1B (human recombinant) (Homo sapiens, UniProt P18031); experiment: Kinetic analysis of PTP1B inhibition (Lineweaver–Burk and Dixon plots); type: biochemical; conditions: for Ki: determined by Dixon plots; for PTP1B type of inhibition: determined by Lineweaver–Burk plots, pNPP 0.5, 1.0 and 2.0 mM
T1 construct: purchased Biomol International LP (Plymouth Meeting, PA, USA)
T1 sequence (P18031 1-435): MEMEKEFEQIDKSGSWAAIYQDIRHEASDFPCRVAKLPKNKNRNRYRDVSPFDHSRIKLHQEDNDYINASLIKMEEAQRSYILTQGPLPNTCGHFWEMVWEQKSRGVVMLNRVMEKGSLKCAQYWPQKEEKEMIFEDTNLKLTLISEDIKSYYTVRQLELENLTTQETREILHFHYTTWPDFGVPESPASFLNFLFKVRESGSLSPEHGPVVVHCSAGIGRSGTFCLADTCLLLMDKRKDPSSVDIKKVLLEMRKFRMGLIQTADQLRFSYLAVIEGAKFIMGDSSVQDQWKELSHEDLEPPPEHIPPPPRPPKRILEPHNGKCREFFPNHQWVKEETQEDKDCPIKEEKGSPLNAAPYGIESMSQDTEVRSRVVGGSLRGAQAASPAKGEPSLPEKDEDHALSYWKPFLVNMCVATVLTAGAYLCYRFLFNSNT
Description: (§1) The PTP1B inhibitory activity was evaluated using pNPP according to the work of Jung et al.. In each well of a 96-well plate (each with a final volume of 100 µL), 40 µL of PTP1B enzyme [0.5 units diluted with a PTP1B reaction buffer containing 50 mM citrate (pH 6.0), 0.1 M NaCl, 1 mM EDTA, and 1 mM DTT] was added with or without the sample dissolved in 10% DMSO. The plate was preincubated at 37 °C for 10 min and then 50 µL of 2 mM pNPP in the PTP1B reaction buffer was added. Following incubation at 37 °C for 20 min, the reaction was terminated by the addition of 10 M NaOH. […] The inhibition percentage was obtained using the following equation: % inhibition = (Ac − As)/Ac × 100, where Ac is the absorbance of the control and As is the absorbance of the sample.
To determine the kinetic mechanism, two kinetic methods using Lineweaver–Burk and Dixon plots were complementarily used. […] The enzymatic inhibitions of the test flavonoids were evaluated by monitoring the effects of different concentrations of the […] in the Dixon plots (single reciprocal plot). The enzymatic procedure consisted of the same, aforementioned, PTP1B assay method. The inhibition constants (Ki) were determined by interpretation of the Dixon plots, where the value of the x-axis implies -Ki.

[2] = target: T1, PTP1B (human recombinant); experiment: PTP1B inhibitory assay using pNPP; type: biochemical; conditions: for IC50: mean ± S.E.M of triplicate experiments, substrate pNPP
Description: as §1

Row | Structure (SMILES) | Ki [1] [µM] | PTP1B type of inhibition [1] | PTP1B type of inhibition ([1]; listed as hesperidin) | IC50 [2] [µM] | PTP1B type of inhibition ([1]; listed as hesperetin 5-O-glucoside) | PTP1B type of inhibition ([1]; listed as hesperetin) | PTP1B inhibitory activity (in words) [2] | PTP1B type of inhibition ([1]; listed as neohesperidin)
1 | COc1ccc(C2CC(=O)c3c(O)cc(OC4OC(COC5OC(C)C(O)C(O)C5O)C(O)C(O)C4O)cc3O2)cc1O (stereo not drawn) [Hesperidin, hesperetin 7-O-rutinoside] | 50 | Mixed | mixed-type inhibition | 58.1 ± 4.18 |  |  |  | 
2 | COc1ccc(C2CC(=O)c3c(cc(O)cc3OC3OC(CO)C(O)C(O)C3O)O2)cc1O (stereo not drawn) [Hesperetin 5-O-glucoside] | 81.6 | Mixed |  | 37.14 ± 0.07 | mixed-type inhibition |  |  | 
3 | COc1ccc([C@@H]2CC(=O)c3c(O)cc(O)cc3O2)cc1O [Hesperetin] | 295 | Uncompetitive |  | 288 ± 7.98 |  | uncompetitive-type inhibition |  | 
4 | COc1ccc(C2CC(=O)c3c(O)cc(OC4OC(CO)C(O)C(O)C4O)cc3O2)cc1O (stereo not drawn) [Hesperetin 7-O-glucoside] |  |  |  | > 300 |  |  | inactive | 
5 | COc1ccc(C2CC(=O)c3c(O)cc(OC4OC(CO)C(O)C(O)C4OC4OC(C)C(O)C(O)C4O)cc3O2)cc1O (stereo not drawn) [Neohesperidin, hesperetin 7-O-neohesperidoside] | 154 | Uncompetitive |  | 144 ± 3.04 |  |  |  | uncompetitive-type inhibition
